Results taken from patent US20120077957A1, “Lactam-Bridged Melanocortin Receptor-Specific Peptides” (PALATIN TECHNOLOGIES, INC., priority 2009, published 2012).
Read-outs that look alike come from different tables or passages of the source. Bridge positions count the residues as written; N and C are the ends. Square brackets hold non-standard residues; d marks the D form. Peptide text beside a SMILES is read from it. * marks the point of attachment. Orn = NCCC[C@H](N)C(=O)O; Bn = c1ccc(C*)cc1

Tests used:
human MC4-R [1] = target: T1, human MC4-R (Homo sapiens, UniProt P32245); test: cAMP functional assay in HEK-293 T-REx cells expressing human MC4-R, induced with doxycycline 0.1 ng/mL (low density); type: cell-based; settings: for Emax: HEK293-T-REx
T1 construct: expressed in transfected cells; host or cells: HEK293 T-REx (tetracycline-regulated, Invitrogen); cell line from Palatin Technologies with license from the University of Michigan
Source text: A HEK293 cell line transfected with human MC4-R (from Palatin Technologies, US, with license from the University of Michigan) was used. The human MC4-R was introduced to HEK293 by using the T-REx™ System, Invitrogen. The T-REx™ System employs a tetracycline-regulated mammalian expression system that uses regulatory elements from the E. coli Tn10-encoded tetracycline (Tet) resistance operon. By use of the T-REx™ System, expression of the gene of interest, the human MC4-R gene, is repressed in the absence of tetracycline or doxycycline and induced in the presence of tetracycline or doxycycline (see T-REx™ System Manual, published by Invitrogen).
Cells were then counted and volume was adjusted to 5×10^4 cells per 200 μL.
The cells were then dispensed into 96-well plates (BD 353916) in 198 μL (about 5×10^4) cells/well and incubated for 10 minutes at 37° C. The compound to be tested was diluted with DMSO to a final concentration of 1 mM. Serial dilution was prepared in polypropylene removable 12-well library tube strips (VWR cat #83009-682). 120 μL of the 1 mM compound stock was pipetted in the second column on the plate.
2 μL of the standard, [Nle^4, D-Phe^7]alpha-Melanocyte Stimulating Hormone (NDP-α-MSH), or compound was added to the 96-well plate using the Janus robotic system. All assay samples were run in duplicate (i.e. each sample was in two low dox and two high dox plates, respectively). The plates were gently shaken and incubated for 15 minutes at 37° C. The reaction was stopped by adding 15 μL of lysis buffer per well and the plates were shakened for 30 minutes at room temperature.
Agonist stimulation of the MC4-R activates adenylate cyclase, which is an enzyme that catalyses the formation 3′,5′-cyclic adenosine monophosphate (cAMP) from adenosine triphosphate (ATP). […] Fluoresence ratios were then calculated as described in the CisBio HTRF kit, with GraphPad Prism software used to plot the change in fluorescence percent values versus cAMP concentration using the variable slope dose response curve and, based on calculated cAMP concentrations, to determine EC50 and Emax values. […]

human MC4-R [2] = target: T1, human MC4-R; test: Competitive inhibition binding assay with [I125]-NDP-α-MSH or Eu-NDP-α-MSH, membranes of HEK-293 cells expressing recombinant hMC4-R
Procedure: A competitive inhibition binding assay was performed using membrane homogenates prepared from HEK-293 cells that express recombinant hMC4-R, hMC3-R, or hMC5-R, and from B-16 mouse melanoma cells (containing endogenous MC1-R). In some instances, HEK-293 cells that express recombinant hMC1-R were employed. In the examples that follow, all MC3-R, MC4-R and MC5-R values are for human recombinant receptors. […] After incubation for 60 minutes at 37° C., the assay mixture was filtered and the membranes washed three times with ice-cold buffer. Filters were dried and counted in a gamma counter for bound radioactivity. […] Maximal specific binding (100%) was defined as the difference in radioactivity (cpm) bound to cell membranes in the absence and presence of 1 μM NDP-α-MSH. […] Ki values for test peptides of the present invention were determined using Graph-Pad Prism® curve-fitting software.
Alternatively, a competitive inhibition binding assay was performed employing Eu-NDP-α-MSH (PerkinElmer Life Sciences catalog No. AD0225) with determination by time-resolved fluorometry (TRF) of the lanthanide chelate. […] After incubation for 90 minutes at 37° C., the reaction was stopped by filtration over AcroWell 96-well filter plates (Pall Life Sciences). The filter plates were washed 4 times with 200 μL of ice-cold phosphate-buffered saline. DELFIA Enhancement solution (PerkinElmer Life Sciences) was added to each well. […] Each assay was conducted in duplicate and mean values were utilized. Ki values were determined by curve-fitting with Graph-Pad Prism® software using a one-site fixed-slope competition binding model.

[3] = maximal cAMP stimulation, NDP-α-MSH = 100%, doxycycline 0.1 ng/mL, averages of all comparable assays, read-out: Emax
[4] = human MC4-R cAMP assay, doxycycline 0.1 ng/mL, averages of all comparable assays, read-out: Ec50
[5] = human MC4-R, averages of all comparable assays, read-out: Ki

T1 sequence (P32245 whole entry): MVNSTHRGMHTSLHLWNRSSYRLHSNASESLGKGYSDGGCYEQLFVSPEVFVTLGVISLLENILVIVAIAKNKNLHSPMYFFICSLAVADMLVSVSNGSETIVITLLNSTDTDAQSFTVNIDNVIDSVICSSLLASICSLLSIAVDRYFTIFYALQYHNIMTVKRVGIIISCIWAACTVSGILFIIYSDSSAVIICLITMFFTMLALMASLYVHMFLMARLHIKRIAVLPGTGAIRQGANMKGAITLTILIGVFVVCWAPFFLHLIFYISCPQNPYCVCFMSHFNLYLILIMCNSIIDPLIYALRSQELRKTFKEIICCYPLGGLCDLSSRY

| SMILES | Emax (human MC4-R [1]; [3]) | EC50 (human MC4-R [1]; [4]) | Ki (human MC4-R [2]; [5]) | Ki (human MC4-R [2]) | EC50 (human MC4-R [1]) | Emax (human MC4-R [1]) |
| --- | --- | --- | --- | --- | --- | --- |
| CC(=O)N[C@@H](CCCNC(=N)N)C(=O)N[C@H]1CC(=O)NCCCC[C@@H](C(N)=O)NC(=O)[C@H](Cc2c[nH]c3ccccc23)NC(=O)[C@H](CCCNC(=N)N)NC(=O)[C@@H](Cc2ccccc2)NC(=O)[C@H](CC(N)=O)NC1=O [reference compound] (Ac-RDN[dF]RWK-NH2; lactam 2-7) | 91% | 42 nM | – | 32 nM | – | – |
| CC(=O)N[C@@H](CCCNC(=N)N)C(=O)N[C@H]1CCC(=O)NCCC[C@@H](C(N)=O)NC(=O)[C@H](Cc2c[nH]c3ccccc23)NC(=O)[C@H](CCCNC(=N)N)NC(=O)[C@@H](Cc2ccccc2)NC(=O)[C@H](CC(N)=O)NC1=O [No. 34, Ac-Arg-cyclo(Glu-Asn-D-Phe-Arg-Trp-Orn)-NH2] | – | 0.4 nM | 6 nM | – | – | – |
| CC(=O)N[C@@H](CCCNC(=N)N)C(=O)N[C@H]1CCC(=O)NCCC[C@@H](C(N)=O)NC(=O)[C@H](Cc2c[nH]c3ccccc23)NC(=O)[C@H](CCCNC(=N)N)NC(=O)[C@@H](Cc2ccccc2)NC(=O)[C@H](CCS(C)(=O)=O)NC1=O [No. 13, Ac-Arg-cyclo(Glu-Met(O2)-D-Phe-Arg-Trp-Orn)-NH2] | 71% | 5 nM | 8 nM | – | – | – |
| CC(=O)N[C@@H](CCCCN)C(=O)N[C@H]1CCCNC(=O)CC[C@@H](C(N)=O)NC(=O)[C@H](Cc2c[nH]c3ccccc23)NC(=O)[C@H](CCCNC(=N)N)NC(=O)[C@@H](Cc2ccccc2)NC(=O)[C@H](Cc2c[nH]cn2)NC1=O [No. 40, Ac-Lys-cyclo(Orn-His-D-Phe-Arg-Trp-Glu)-NH2] (Ac-K[Orn]H[dF]RWE-NH2; lactam 2-7) | 114% | 0.2 nM | – | 3 nM | – | – |
| CC(=O)N[C@@H](CCCNC(=N)N)C(=O)N[C@H]1CCC(=O)NCCC[C@@H](C(N)=O)NC(=O)[C@H](Cc2c[nH]c3ccccc23)NC(=O)[C@H](CCCNC(=N)N)NC(=O)[C@@H](Cc2ccccc2)NC(=O)[C@H](Cc2c[nH]cn2)NC1=O [No. 4, Ac-Arg-cyclo(Glu-His-D-Phe-Arg-Trp-Orn)-NH2] (Ac-REH[dF]RW[Orn]-NH2; lactam 2-7) | 83% | 0.2 nM | 1 nM | – | – | – |
| CCCC[C@H](NC(C)=O)C(=O)N[C@H]1CCCNC(=O)CC[C@@H](C(N)=O)NC(=O)[C@H](Cc2c[nH]c3ccccc23)NC(=O)[C@H](CCCNC(=N)N)NC(=O)[C@@H](Cc2ccccc2)NC(=O)[C@H](Cc2c[nH]cn2)NC1=O [No. 36, Ac-Nle-cyclo(Orn-His-D-Phe-Arg-Trp-Glu)-NH2] | 85% | 0.2 nM | 0.2 nM | – | – | – |
| CC(=O)N[C@@H](CCCNC(=N)N)C(=O)N[C@H]1CC(=O)NCCCC[C@@H](C(N)=O)NC(=O)[C@H](Cc2c[nH]c3ccccc23)NC(=O)[C@H](CCCNC(=N)N)NC(=O)[C@@H](Cc2ccccc2)NC(=O)[C@H](CCC(N)=O)NC1=O [reference compound] | 85% | – | – | – | 17 nM | – |
| CC(=O)N[C@@H](CCCNC(=N)N)C(=O)N[C@H]1CCC(=O)NCCC[C@@H](C(=O)NC2CC2)NC(=O)[C@H](Cc2c[nH]c3ccccc23)NC(=O)[C@H](CCCNC(=N)N)NC(=O)[C@@H](Cc2ccccc2)NC(=O)[C@H](CCC(N)=O)NC1=O [No. 19, Ac-Arg-cyclo(Glu-Gln-D-Phe-Arg-Trp-Orn)-NH-cycProp] | 91% | 1 nM | – | – | – | – |
| CC(=O)N[C@@H](CCCNC(=N)N)C(=O)N[C@H]1CCC(=O)NCCC[C@@H](C(=O)O)NC(=O)[C@H](Cc2c[nH]c3ccccc23)NC(=O)[C@H](CCCNC(=N)N)NC(=O)[C@@H](Cc2ccccc2)NC(=O)[C@H](CCCNC(=N)N)NC1=O [No. 9, Ac-Arg-cyclo(Glu-Arg-D-Phe-Arg-Trp-Orn)-OH] | 82% | 2 nM | – | – | – | – |
| CC(=O)N[C@@H](CCCNC(=N)N)C(=O)N[C@H]1CCC(=O)NCCC[C@@H](C(=O)O)NC(=O)[C@H](Cc2c[nH]c3ccccc23)NC(=O)[C@H](CCCNC(=N)N)NC(=O)[C@@H](Cc2ccccc2)NC(=O)[C@H](Cc2c[nH]cn2)NC1=O [No. 3, Ac-Arg-cyclo(Glu-His-D-Phe-Arg-Trp-Orn)-OH] (Ac-REH[dF]RW[Orn]-OH; lactam 2-7) | 83% | 0.7 nM | – | – | – | – |
| CCCC[C@H](NC(C)=O)C(=O)N[C@H]1CC(=O)NCCCC[C@@H](C(=O)O)NC(=O)[C@H](Cc2c[nH]c3ccccc23)NC(=O)[C@H](CCCNC(=N)N)NC(=O)[C@@H](Cc2ccccc2)NC(=O)[C@H](Cc2c[nH]cn2)NC1=O [Ac-Nle-cyclo(Asp-His-D-Phe-Arg-Trp-Lys)-OH, reference compound] | – | – | – | – | – | 81% |
| CC(=O)N[C@@H](CCCNC(=N)N)C(=O)N[C@H]1CCC(=O)NCCC[C@@H](C(N)=O)NC(=O)[C@H](Cc2c[nH]c3ccccc23)NC(=O)[C@H](CCCNC(=N)N)NC(=O)[C@@H](Cc2ccccc2)NC(=O)[C@@H]2C[C@@H](O)CN2C1=O [No. 14, Ac-Arg-cyclo(Glu-Hyp-D-Phe-Arg-Trp-Orn)-NH2] | 104% | – | – | – | – | – |

The next lines start with results.

| Emax (human MC4-R [1]; [3]) | EC50 (human MC4-R [1]; [4]) | Ki (human MC4-R [2]; [5]) | SMILES | Ki (human MC4-R [2]) | EC50 (human MC4-R [1]) | Emax (human MC4-R [1]) |
| --- | --- | --- | --- | --- | --- | --- |
| – | 5 nM | 9 nM | CC(=O)N[C@@H](CCCNC(=N)N)C(=O)N[C@H]1CC(=O)NCCCC[C@@H](C(=O)O)NC(=O)[C@H](Cc2c[nH]c3ccccc23)NC(=O)[C@H](CCCNC(=N)N)NC(=O)[C@@H](Cc2ccccc2)NC(=O)[C@H](COCc2ccccc2)NC1=O [reference compound] | – | – | – |
| 103% | 0.1 nM | – | CC(=O)N[C@@H](CCCNC(=N)N)C(=O)N[C@H]1CCCNC(=O)CC[C@@H](C(N)=O)NC(=O)[C@H](Cc2c[nH]c3ccccc23)NC(=O)[C@H](CCCNC(=N)N)NC(=O)[C@@H](Cc2ccccc2)NC(=O)[C@H](CCN)NC1=O [No. 43, Ac-Arg-cyclo(Orn-Dab-D-Phe-Arg-Trp-Glu)-NH2] | 3 nM | – | – |
| 50% | 3 nM | 5 nM | CC(=O)N[C@@H](CCCNC(=N)N)C(=O)N[C@H]1CCCNC(=O)CC[C@@H](C(=O)O)NC(=O)[C@H](Cc2c[nH]c3ccccc23)NC(=O)[C@H](CCCNC(=N)N)NC(=O)[C@@H](Cc2ccccc2)NC(=O)[C@H](COCc2ccccc2)NC1=O [No. 48, Ac-Arg-cyclo(Orn-Ser(Bzl)-D-Phe-Arg-Trp-Glu)-OH] (Ac-R[Orn]S(Bn)[dF]RWE-OH; lactam 2-7) | – | – | – |
| 54% | 6 nM | 5 nM | CC(=O)N[C@@H](CCCNC(=N)N)C(=O)N[C@H]1CCCNC(=O)CC[C@@H](C(N)=O)NC(=O)[C@H](Cc2c[nH]c3ccccc23)NC(=O)[C@H](CCCNC(=N)N)NC(=O)[C@@H](Cc2ccccc2)NC(=O)[C@@H]2CCCN2C1=O [No. 47, Ac-Arg-cyclo(Orn-Pro-D-Phe-Arg-Trp-Glu)-NH2] (Ac-R[Orn]P[dF]RWE-NH2; lactam 2-7) | – | – | – |
| 97% | 8 nM | – | CC(=O)N[C@@H](CCCNC(=N)N)C(=O)N[C@H]1CC(=O)NCCCC[C@@H](C(N)=O)NC(=O)[C@H](Cc2c[nH]c3ccccc23)NC(=O)[C@H](CCCNC(=N)N)NC(=O)[C@@H](Cc2ccccc2)NC(=O)[C@H](CCCCN)NC1=O [reference compound] (Ac-RDK[dF]RWK-NH2; lactam 2-7) | – | – | – |
| 100% | – | – | CC(=O)N[C@@H](CCCNC(=N)N)C(=O)N[C@H]1CCCNC(=O)CC[C@@H](C(=O)O)NC(=O)[C@H](Cc2c[nH]c3ccccc23)NC(=O)[C@H](CCCNC(=N)N)NC(=O)[C@@H](Cc2ccccc2)NC(=O)[C@H](CCN)NC1=O [No. 42, Ac-Arg-cyclo(Orn-Dab-D-Phe-Arg-Trp-Glu)-OH] | – | – | – |
